This note sets out measurements from US12077555B2, “STAT degraders and uses thereof” (Kymera Therapeutics, Inc., priority 2019, dated 2024).

For the test, the target named is STAT3 (Homo sapiens, UniProt P40763). As to the kind of experiment: STAT3 HiBiT degradation assay in transfected A549 cells. In kind it is cell-based. Details: expressed in transfected cells; host or cells: A549. Particulars: A549, 24 h; read-out: STAT3 HiBiT A549 degradation 24 h: Average external-Abs DC50. The procedure, abridged:
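Degradation read as HiBiT-tagged STAT3 luminescence (Nano-Glo lytic reagent, 10 min, room temperature) following 24 h compound treatment of transfected A549 cells at 3-fold, 10 points. Percent remaining signal computed against controls and fitted with a four-parameter logistic; DC50 reported as letter bins (A <0.01 to D >1.0 µM).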

Structures are written as SMILES. A value given as a limit tells only on which side of the number the result lay.

Sequence of STAT3 (P40763 whole entry): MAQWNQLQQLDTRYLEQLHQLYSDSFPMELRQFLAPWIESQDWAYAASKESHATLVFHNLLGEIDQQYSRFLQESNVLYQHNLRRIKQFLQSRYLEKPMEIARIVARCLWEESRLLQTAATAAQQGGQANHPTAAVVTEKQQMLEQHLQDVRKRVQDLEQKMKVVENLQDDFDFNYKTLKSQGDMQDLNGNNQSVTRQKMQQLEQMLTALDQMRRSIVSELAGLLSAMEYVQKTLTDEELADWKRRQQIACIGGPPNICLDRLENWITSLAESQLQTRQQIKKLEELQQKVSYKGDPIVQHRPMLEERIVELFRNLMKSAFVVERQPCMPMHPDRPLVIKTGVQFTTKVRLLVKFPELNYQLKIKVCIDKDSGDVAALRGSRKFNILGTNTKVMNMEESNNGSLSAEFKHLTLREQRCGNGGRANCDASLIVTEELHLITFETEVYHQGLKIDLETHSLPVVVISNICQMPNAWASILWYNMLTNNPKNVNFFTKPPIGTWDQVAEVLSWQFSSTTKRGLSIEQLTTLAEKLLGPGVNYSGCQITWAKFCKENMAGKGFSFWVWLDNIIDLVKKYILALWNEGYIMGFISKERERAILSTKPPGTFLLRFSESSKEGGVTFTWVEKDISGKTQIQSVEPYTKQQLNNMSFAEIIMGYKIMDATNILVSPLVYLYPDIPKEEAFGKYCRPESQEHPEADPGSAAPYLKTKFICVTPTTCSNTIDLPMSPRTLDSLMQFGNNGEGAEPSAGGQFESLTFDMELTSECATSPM

As for `Cc1ncsc1-c1ccc([C@H](C)NC(=O)[C@@H]2C[C@@H](O)CN2C(=O)[C@@H](NC(=O)CCCCc2ccc(CO[C@H](C)[C@H](CCC(N)=O)NC(=O)[C@@H]3Cc4cccc5c4N3C(=O)[C@@H](NC(=O)c3cc4cc(C(=O)P(=O)(O)O)ccc4[nH]3)CC5)c(F)c2)C(C)(C)C)cc1` [Compound I-225, diammonium 2-[[(2S,11S)-2-[[(3S,4R)-1-carbamoyl-4-[[2-fluoro-4-(4-[[(2S)-1-[(2S,4R)-4-hydroxy-2-[[(1S)-1-[4-(4-methyl-1,3-thiazol-5-yl)phenyl]ethyl]carbamoyl]pyrrolidin-1-yl]-3,3-dimethyl-1-oxobutan-2-yl]carbamoyl]butyl)phenyl]methoxy]pentan-3-yl]carbamoyl]-12-oxo-1-azatricyclo[6.4.1.0^[4,13]]trideca-4(13),5,7-trien-11-yl]carbamoyl]-1H-indole-5-carbonylphosphonate], the DC50 – broadly, the midpoint of the concentration-degradation curve – lay within 100 to 1000 nM. For the compound `Cn1c(=O)n(C2CCC(=O)NC2=O)c2cccc(CCCC(=O)N3CC[C@H]4CC[C@@H](C(=O)N[C@@H](CCC(N)=O)C(=O)NC(c5ccccc5)c5ccccc5)N4C(=O)[C@@H](NC(=O)c4cc5cc(C(=O)P(=O)(O)O)ccc5[nH]4)C3)c21` (stereo partly drawn) [Compound I-122, 2-[[(5S,8S,10aR)-8-[[(1S)-3-carbamoyl-1-(diphenylmethylcarbamoyl)propyL]carbamoyl]-3-[4-[1-(2,6-dioxopiperidin-3-yl)-3-methyl-2-oxo-1,3-benzodiazol-4-yl]butanoyl]-6-oxo-octahydropyrrolo[1,2-a][1,5]diazocin-5-yl]carbamoyl]-1H-indole-5-carbonylphosphonic acid], the DC50 was above 1000 nM. With `Cc1ncsc1-c1ccc(C2(NC(=O)[C@@H]3C[C@@H](O)CN3C(=O)[C@@H](NC(=O)CCCCCc3cccc(OC[C@H](CCC(N)=O)NC(=O)[C@@H]4Cc5cccc6c5N4C(=O)[C@@H](NC(=O)c4cc5cc(C(=O)P(=O)(O)O)ccc5[nH]4)CC6)c3)C(C)(C)C)CC2)cc1` [Compound I-206, diammonium 2-[[(2S,11S)-2-[[(2S)-4-carbamoyl-1-[3-(5-[[(2S)-1-[(2S,4R)-4-hydroxy-2-([1-[4-[4-methyl-1,3-thiazo1-5-yl)phenyl]cyclopropyl]carbamoyl)pyrrolidin-1-yl]-3,3-dimethyl-1-oxobutan-2-yl]carbamoyl]pentyl)phenoxy]butan-2-yl]carbamoyl]-12-oxo-1-azatricyclo[6.4.1.0^[4,13]]trideca-4(13),5,7-trien-11-yl]carbamoyl]-1H-indole-5-carbonylphosphonate] the figure was 10 to 100 nM; with `Cc1ncsc1-c1ccc(CNC(=O)[C@@H]2C[C@@H](O)CN2C(=O)[C@@H](NC(=O)C2CCN(c3ccc(CO[C@H](C)[C@H](CCC(N)=O)NC(=O)[C@@H]4Cc5cccc6c5N4C(=O)[C@@H](NC(=O)c4cc5cc(C(=O)P(=O)(O)O)ccc5[nH]4)CC6)cc3)CC2)C(C)(C)C)cc1` [Compound I-161], above 1000 nM; with `Cn1c(=O)n(C2CCC(=O)NC2=O)c2ccc(N3CC(CCCC(=O)N4CC[C@H]5CC[C@@H](C(=O)N[C@@H](CCC(N)=O)C(=O)NC(c6ccccc6)c6ccccc6)N5C(=O)[C@@H](NC(=O)c5cc6cc(C(=O)P(=O)(O)O)ccc6[nH]5)C4)C3)cc21` (stereo partly drawn) [Compound I-135, 2-[[(5S,8S,10aR)-8-[[(1S)-3-carbamoyl-1-(diphenylmethylcarbamoyl)propyl]carbamoyl]-3-(4-[1-[1-(2,6-dioxopiperidin-3-yl)-3-methyl-2-oxo-1,3-benzodiazol-5-yl]azetidin-3-yl]butanoyl)-6-oxo-octahydropyrrolo[1,2-a][1,5]diazocin-5-yl]carbamoyl]-1H-indole-5-carbonylphosphonic acid], 100 to 1000 nM. The same measure for `CC(=O)O[C@@H]1C[C@@H](C(=O)N[C@@H](C)c2ccc(-c3scnc3C)cc2)N(C(=O)[C@@H](NC(=O)CCCCCc2cccc(OC[C@H](CCC(N)=O)NC(=O)[C@@H]3Cc4cccc5c4N3C(=O)[C@@H](NC(=O)c3cc4cc(C(=O)P(=O)(O)O)ccc4[nH]3)CC5)c2F)C(C)(C)C)C1` [Compound I-272]: below 10 nM.

Take `Cc1ncsc1-c1ccc([C@H](C)NC(=O)[C@@H]2C[C@@H](O)CN2C(=O)[C@@H](NC(=O)CCCCCc2ccnc([C@H](CCC(N)=O)NC(=O)[C@@H]3Cc4cccc5c4N3C(=O)[C@@H](NC(=O)c3cc4cc(C(=O)P(=O)(O)O)ccc4[nH]3)CC5)c2)C(C)(C)C)cc1` [Compound I-268, 2-[[(2S,11S)-2-[[(1S)-3-carbamoyl-1-[4-(5-[[(2S)-1-[(2S,4R)-4-hydroxy-2-[[(1S)-1-[4-(4-methyl-1,3-thiazol-5-yl)phenyl]ethyl]carbamoyl]pyrrolidin-1-yl]-3,3-dimethyl-1-oxobutan-2-yl]carbamoyl]pentyl)pyridin-2-yl]propyl]carbamoyl]-12-oxo-1-azatricyclo [6.4.1.0^[4,13]]trideca-4(13),5,7-trien-11-yl]carbamoyl]-1H-indole-5-carbonylphosphonic acid]: the DC50 was in the range of 100 to 1000 nM. Regarding `Cc1ncsc1-c1ccc(CNC(=O)[C@@H]2C[C@@H](O)CN2C(=O)[C@@H](NC(=O)CCCCCc2cccc(CC[C@H](CCC(N)=O)NC(=O)[C@@H]3Cc4cccc5c4N3C(=O)[C@@H](NC(=O)c3cc4cc(C(=O)P(=O)(O)O)ccc4[nH]3)CC5)c2)C(C)(C)C)cc1` [Compound I-224, diammonium 2-[[(2S,11S)-2-[[(3R)-1-carbamoyl-5-[3-[5-[[(2S)-1-[(2S,4R)-4-hydroxy-2-([[4-(4-methyl-1,3-thiazo1-5-yl)phenyl]methyl]carbamoyl)pyrrolidin-1-yl]-3,3-dimethyl-1-oxobutan-2-yl]carbamoyl]pentyl)phenyl]pentan-3-yl]carbamoyl]-12-oxo-1-azatricyclo[6.4.1.0^[4,13]]trideca-4(13),5,7-trien-11-yl]carbamoyl]-1H-indole-5-carbonylpho sphonate], the DC50 is above 1000 nM. For the compound `Cc1ncsc1-c1ccc([C@H](C)NC(=O)[C@@H]2C[C@@H](O)CN2C(=O)[C@@H](NC(=O)CCCCCc2ccc([C@H](CCC(N)=O)NC(=O)[C@@H]3Cc4cccc5c4N3C(=O)[C@@H](NC(=O)c3cc4cc(C(=O)P(=O)(O)O)ccc4[nH]3)CC5)nc2)C(C)(C)C)cc1` [Compound I-238], the DC50 fell in the range of 100 to 1000 nM. Take `Cc1ncsc1-c1ccc([C@H](C)NC(=O)[C@@H]2C[C@@H](O)CN2C(=O)[C@@H](NC(=O)CCCCCc2cccc(OC[C@@H](NC(=O)[C@@H]3Cc4cccc5c4N3C(=O)[C@@H](NC(=O)c3cc4cc(C(=O)P(=O)(O)O)ccc4[nH]3)CC5)C(N)=O)c2C)C(C)(C)C)cc1` [Compound I-205, diammonium 2-[[(2S,11S)-2-[[(2S)-4-carbamoyl-1-[3-[5-[[(2S)-1-[(2S,4R)-4-hydroxy-2-[[(1S)-1-[4-[4-methyl-1,3-thiazol-5-yl)phenyl]ethyl]carbamoyl]pyrrolidin-1-yl]-3,3-dimethyl-1-oxobutan-2-yl]carbamoyl]pentyl)-2-methylphenoxy]butan-2-yl]carbamoyl]-12-oxo-1-azatricyclo[6.4.1.0^[4,13]]trideca-4(13),5,7-trien-11-yl]carbamoyl]-1H-indole-5-carbonylphosphonate]: the half-maximal degradation concentration (DC50) lay within 10 to 100 nM.
